Among the data in PubChem BioAssay AID248 (DTP/NCI, 2004) are T/C values, retold here.

The experiment has as its system L1210 leukemia ip in BDF1 mice, survival T/C. The experiment in a line: NCI In Vivo Anticancer Drug Screen. Data for tumor model L1210 Leukemia (intraperitoneal) in B6D2F1 (BDF1) mice. Conditions: endpoint: mean survival time, higher = longer survival. The method, boiled down: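 Survival endpoint. Drug-treated group vs vehicle group, expressed as T divided by C. Tumor passaged by transplantation.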

The mark [1] stands for this setting: dose: 100.0 mg/kg/injection, schedule: Q01DX009 (ip), vehicle: Klucel (hydroxypropylcellulose) (HPC).
[2] abbreviates: dose: 200.0 mg/kg/injection, schedule: Q01DX009 (ip), vehicle: Klucel (hydroxypropylcellulose) (HPC).
Where [3] appears, read: dose: 400.0 mg/kg/injection, schedule: Q01DX009 (ip), vehicle: Klucel (hydroxypropylcellulose) (HPC).
[4] abbreviates: dose: 100.0 mg/kg/injection, schedule: Q04DX002 (ip), vehicle: saline with Tween-80.
Setting [5] is: dose: 200.0 mg/kg/injection, schedule: Q04DX002 (ip), vehicle: saline with Tween-80.
[6] abbreviates: dose: 400.0 mg/kg/injection, schedule: Q04DX002 (ip), vehicle: saline with Tween-80.
Where [7] appears, read: dose: 25.0 mg/kg/injection, schedule: Q04DX002 (ip), vehicle: saline with Tween-80.
The mark [8] stands for this setting: dose: 50.0 mg/kg/injection, schedule: Q01DX009 (ip), vehicle: saline with Tween-80.
The mark [9] stands for this setting: dose: 100.0 mg/kg/injection, schedule: Q01DX009 (ip), vehicle: saline with Tween-80.
The mark [10] stands for this setting: dose: 100.0 mg/kg/injection, schedule: Q01DX001 (ip), vehicle: saline.
Where [11] appears, read: dose: 200.0 mg/kg/injection, schedule: Q01DX001 (ip), vehicle: saline.

Values joined by “and” are separate entries in the source; they are usually repeats but may differ in a detail not shown here. Equal values may be shown once. Toxic doses and inconclusive results are not listed.

As to `CCc1ccc(NC(=O)CCC(=O)O)cc1`, the T/C reads like this: under setting [1], 102 % of control; under setting [2], 93 % of control; under setting [3], 90 % of control.

As for `CC(C)OC(=O)C1OC1c1ccccc1` (stereo not drawn), the T/C is, setting by setting: under setting [4], 109 % of control; under setting [5], 102 % of control; under setting [6], 109 % of control.

On to `CCOC1C=CC(OC(C)=O)C(COC(C)=O)O1` (stereo not drawn), for which the T/C was 108 % of control under setting [1]; 96 % of control (dose: 100.0 mg/kg/injection, schedule: Q04DX003 (ip), vehicle: Klucel (hydroxypropylcellulose) (HPC)); 100 % of control under setting [2]; 96 % of control (dose: 200.0 mg/kg/injection, schedule: Q04DX003 (ip), vehicle: Klucel (hydroxypropylcellulose) (HPC)); 104 % of control under setting [3]; 94 % of control (dose: 400.0 mg/kg/injection, schedule: Q04DX003 (ip), vehicle: Klucel (hydroxypropylcellulose) (HPC)).

As to `Cc1cc(C)c([N+](=O)[O-])c(N)n1`, the T/C by setting is: (dose: 100.0 mg/kg/injection, schedule: Q01DX001 (ip), vehicle: Klucel (hydroxypropylcellulose) (HPC)) 102 % of control; under setting [1], 102 % of control; (dose: 200.0 mg/kg/injection, schedule: Q01DX001 (ip), vehicle: Klucel (hydroxypropylcellulose) (HPC)) 105 % of control; under setting [2], 101 % of control; (dose: 400.0 mg/kg/injection, schedule: Q01DX001 (ip), vehicle: Klucel (hydroxypropylcellulose) (HPC)) 100 % of control; under setting [3], 103 % of control.

`CC(CO)CCC(=O)C(C)C1C2(CC3C4CCC5CC(O)CCC5(C)C4CCC31C)SCCS2` (stereo not drawn): the T/C was 100 % of control under setting [7]; 100 % of control (dose: 50.0 mg/kg/injection, schedule: Q04DX002 (ip), vehicle: saline with Tween-80); 96 % of control under setting [4].

For `Clc1cccc(C2ON2C2CCCCC2)c1` (stereo not drawn), the T/C was 92 % of control (dose: 100.0 mg/kg/injection, schedule: Q01DX001 (ip), vehicle: carboxymethylcellulose (CMC)); 100 % of control (dose: 200.0 mg/kg/injection, schedule: Q01DX001 (ip), vehicle: carboxymethylcellulose (CMC)); 94 % of control (dose: 400.0 mg/kg/injection, schedule: Q01DX001 (ip), vehicle: carboxymethylcellulose (CMC)).

`CC(=O)OCCN1CC1`: the T/C by setting is: (dose: 3.12 mg/kg/injection, schedule: Q01DX009 (ip), vehicle: saline) 116 % of control; (dose: 6.25 mg/kg/injection, schedule: Q01DX009 (ip), vehicle: saline) 122 % of control; (dose: 12.5 mg/kg/injection, schedule: Q01DX009 (ip), vehicle: saline) 118 % of control.

`COC1CCCCC1I` (stereo not drawn): the T/C was 95 % of control under setting [8]; 95 % of control under setting [9]; 93 % of control (dose: 200.0 mg/kg/injection, schedule: Q01DX009 (ip), vehicle: saline with Tween-80).

As for `CCCCCCCCOC(=O)c1[nH]cnc1N`, the T/C was 100 % of control (dose: 50.0 mg/kg/injection, schedule: Q01DX001 (ip), vehicle: saline); 96 % of control under setting [10]; 96 % of control under setting [11].

With `COc1cc(C(N)=O)cc(OC)c1OC`, the T/C by setting is: (dose: 100.0 mg/kg/injection, schedule: Q01DX001 (ip), vehicle: saline with Tween-80) 96 % of control; (dose: 200.0 mg/kg/injection, schedule: Q01DX001 (ip), vehicle: saline with Tween-80) 98 % of control; (dose: 400.0 mg/kg/injection, schedule: Q01DX001 (ip), vehicle: saline with Tween-80) 98 % of control.

As to `O=C(CNC(=O)c1ccccc1)Nc1ccc([N+](=O)[O-])cc1`, the T/C reads like this: under setting [10], 100 % of control; under setting [11], 100 % of control; (dose: 400.0 mg/kg/injection, schedule: Q01DX001 (ip), vehicle: saline) 94 % of control.

As for `CN(C)[Se](=O)Cl` (stereo not drawn), the T/C is 100 % of control (dose: 12.5 mg/kg/injection, schedule: Q04DX002 (ip), vehicle: saline with Tween-80) and 110 % of control under setting [7].

On to `CC(C)CC(CC(C)C)NCC(C)OC(=O)c1ccc([N+](=O)[O-])cc1` (stereo not drawn), for which the T/C by setting is: (dose: 100.0 mg/kg/injection, schedule: Q01DX009 (ip), vehicle: water) 93 % of control; (dose: 100.0 mg/kg/injection, schedule: Q04DX003 (ip), vehicle: water) 98 % of control; (dose: 200.0 mg/kg/injection, schedule: Q01DX009 (ip), vehicle: water) 88 % of control; (dose: 200.0 mg/kg/injection, schedule: Q04DX003 (ip), vehicle: water) 98 % of control; (dose: 400.0 mg/kg/injection, schedule: Q01DX009 (ip), vehicle: water) 86 % of control; (dose: 400.0 mg/kg/injection, schedule: Q04DX003 (ip), vehicle: water) 96 % of control.

As for `CN1CCN(CCCN2C(c3ccccc3)C2c2ccccc2)CC1` (stereo not drawn), the T/C was 101 % of control (dose: 50.0 mg/kg/injection, schedule: Q04DX003 (ip), vehicle: saline); 93 % of control (dose: 100.0 mg/kg/injection, schedule: Q04DX003 (ip), vehicle: saline); 93 % of control (dose: 200.0 mg/kg/injection, schedule: Q04DX003 (ip), vehicle: saline).

Regarding `OCc1ccc(OCc2ccccc2)c(OCc2ccccc2)c1`, the T/C was 87 % of control (dose: 100.0 mg/kg/injection, schedule: Q01DX009 (ip), vehicle: other); 94 % of control (dose: 100.0 mg/kg/injection, schedule: Q04DX003 (ip), vehicle: other); 98 % of control (dose: 200.0 mg/kg/injection, schedule: Q04DX003 (ip), vehicle: other); 90 % of control (dose: 400.0 mg/kg/injection, schedule: Q04DX003 (ip), vehicle: other).

For `Cc1cccc2c1C(=S)NC2=O`, the T/C is, setting by setting: under setting [4], 103 % of control; under setting [5], 100 % of control; under setting [6], 89 % of control.

Consider `CC(C)(C)c1ccc(C(=O)C2CC2)cc1`, for which the T/C reads like this: under setting [8], 90 % of control; under setting [9], 92 % of control.

For `CC[n+]1ccccc1-c1ccc(NC(=O)c2ccc(C(=O)Nc3ccc(-c4ccccn4)cc3)cc2)cc1`, the T/C (dose: 0.75 mg/kg/injection, schedule: Q01DX Z (ip), vehicle: saline) was 120 % of control; the T/C (dose: 2.6 mg/kg/injection, schedule: Q01DX Z (ip), vehicle: saline) is 194 % of control and 213 % of control; the T/C (dose: 2.9 mg/kg/injection, schedule: Q01DX001 (ip), vehicle: saline) was 116 % of control; the T/C (dose: 4.0 mg/kg/injection, schedule: Q01DX Z (ip), vehicle: saline) is 176 % of control; the T/C (dose: 4.4 mg/kg/injection, schedule: Q01DX001 (ip), vehicle: saline) was 124 % of control; the T/C (dose: 6.0 mg/kg/injection, schedule: Q01DX Z (ip), vehicle: saline) was 170 % of control. Moreover, the T/C was 103 % of control (dose: 7.0 mg/kg/injection, schedule: Q01DX Z (oral), vehicle: saline); 100 % of control (dose: 14.0 mg/kg/injection, schedule: Q01DX Z (ip), vehicle: saline); 100 % of control (dose: 15.0 mg/kg/injection, schedule: Q01DX Z (oral), vehicle: saline); 164 % of control (dose: 20.0 mg/kg/injection, schedule: Q01DX001 (ip), vehicle: saline); 102 % of control (dose: 22.0 mg/kg/injection, schedule: Q01DX Z (ip), vehicle: saline); 102 % of control (dose: 30.0 mg/kg/injection, schedule: Q01DX Z (oral), vehicle: saline). For the same molecule, the T/C (dose: 35.0 mg/kg/injection, schedule: Q01DX Z (ip), vehicle: saline) is 88 % of control; the T/C (dose: 40.0 mg/kg/injection, schedule: Q01DX001 (ip), vehicle: saline) is 153 % of control and 191 % of control.

Take `C=C(C)C1CCC2=CCCC(C)C2(C)C1` (stereo not drawn): the T/C was 98 % of control (dose: 100.0 mg/kg/injection, schedule: Q04DX003 (ip), vehicle: acetone) and 96 % of control (dose: 200.0 mg/kg/injection, schedule: Q04DX003 (ip), vehicle: acetone).

In the case of `C(=N\Nc1ccccc1)/c1cc2c3c(c1)CCCN3CCC2`, the T/C runs as follows: (dose: 100.0 mg/kg/injection, schedule: Q01DX009 (ip), vehicle: gum acacia) 94 % of control; (dose: 200.0 mg/kg/injection, schedule: Q01DX009 (ip), vehicle: gum acacia) 91 % of control; (dose: 400.0 mg/kg/injection, schedule: Q01DX009 (ip), vehicle: gum acacia) 94 % of control.
